# Experimental data as given in the supplement of paper PMC10331698.
# ± gives the standard deviation of the averaged measurements.
# Key:
# Assay in all cases: level (log10 ratio to DMSO vehicle control); higher = higher biomarker level / cell amount than vehicle control
# Details in all cases: in DMSO
# [1] = compound: CNS(=O)(=O)C(F)(F)C(F)(F)C(F)(F)C(F)(F)C(F)(F)C(F)(F)C(F)(F)C(F)(F)F [N-Methylperfluorooctanesulfonamide]
# Protocol: (§1)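 BioMAP Diversity Plus panel of 12 human primary cell co-culture systems (3C, 4H, LPS, SAg, BT, BF4T, BE3C, CASM3C, HDF3CGF, KF3CT, MyoF, Mphg). Compounds were added 1 h before stimulation and left for 24 h (MyoF 48 h; BT 72 h for soluble read-outs or 6 d for IgG). Biomarkers were read by ELISA, cytotoxicity by SRB, PBMC viability and proliferation by Alamar Blue. Each well value was divided by the mean of 8 DMSO control wells on the same plate and log10 transformed; duplicate blinded samples were tested at 4 concentrations.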
# Perfluorohexanoic acid = compound: O=C(O)C(F)(F)C(F)(F)C(F)(F)C(F)(F)C(F)(F)F [Perfluorohexanoic acid]
# Protocol: as §1
# [2] = compound: O=C(O)C(F)(F)OC(F)(F)C(F)(F)OC(F)(F)C(F)(F)C(F)(F)C(F)(F)F [Perfluoro-3,6-dioxadecanoic acid]
# Protocol: as §1
# [3] = compound: O=C(O)CCC(F)(F)C(F)(F)C(F)(F)C(F)(F)C(F)(F)F [2H,2H,3H,3H-Perfluorooctanoic acid]
# Protocol: as §1
# [4] = compound: O=C(O)C(F)(F)C(F)(F)C(F)(F)C(F)(F)C(F)(F)C(F)(F)C(F)(F)C(F)(F)C(F)(F)C(F)(F)C(F)(F)C(F)(F)C(F)(F)F [Perfluorotetradecanoic acid]
# Protocol: as §1
# [5] = compound: O=C(O)C(F)(F)C(F)(F)C(F)(F)C(F)(F)C(F)(F)C(F)(F)C(F)(F)C(F)(F)C(F)(F)C(F)(F)C(F)(F)C(F)(F)F [Perfluorotridecanoic acid]
# Protocol: as §1
# 1-(Perfluorohexyl)octane = compound: CCCCCCCCC(F)(F)C(F)(F)C(F)(F)C(F)(F)C(F)(F)C(F)(F)F [1-(Perfluorohexyl)octane]
# Protocol: as §1
Test System,level (log10) ([1]; 6700 nM),level (log10) ([1]; 20000 nM),level (log10) ([1]; 60000 nM),level (log10) (Perfluorohexanoic acid; 6700 nM),level (log10) (Perfluorohexanoic acid; 20000 nM),level (log10) (Perfluorohexanoic acid; 60000 nM),level (log10) ([2]; 6700 nM),level (log10) ([2]; 20000 nM),level (log10) ([2]; 60000 nM),level (log10) ([3]; 6700 nM),level (log10) ([3]; 20000 nM),level (log10) ([3]; 60000 nM),level (log10) ([4]; 6700 nM),level (log10) ([4]; 20000 nM),level (log10) ([5]; 1500 nM),level (log10) ([5]; 4400 nM),level (log10) ([5]; 13000 nM),level (log10) ([5]; 40000 nM),level (log10) (1-(Perfluorohexyl)octane; 6700 nM),level (log10) (1-(Perfluorohexyl)octane; 20000 nM)
3C:CXCL9/MIG,0.001 ± 0.0014,-0.0075 ± 0.011,0.022 ± 0.0057,-0.0065 ± 0.012,-0.0045 ± 0.00071,0.0025 ± 0.012,-0.015 ± 0.02,-0.0185 ± 0.019,-0.002 ± 0.017,-0.006 ± 0.013,-0.007 ± 0.027,-0.0075 ± 0.021,-0.0045 ± 0.0035,0.0015 ± 0.0021,0.0055 ± 0.0035,0.0005 ± 0.00071,0.003 ± 0.0085,0.0035 ± 0.00071,0.009 ± 0.023,0.017 ± 0.016
BF4T:CD54/ICAM-1,0.009 ± 0.024,0.013 ± 0.0085,0.028 ± 0.011,-0.011 ± 0.0014,-0.0135 ± 0.0064,-0.0005 ± 0.0021,-0.04 ± 0.0057,-0.0335 ± 0.0035,-0.0365 ± 0.005,-0.0175 ± 0.018,-0.0115 ± 0.0021,-0.0075 ± 0.0092,-0.002 ± 0.0099,0.0175 ± 0.025,0.01 ± 0.023,0.0115 ± 0.015,-0.01 ± 0.0028,0.0115 ± 0.025,0.0005 ± 0.005,-0.0085 ± 0.023
BF4T:CD106/VCAM-1,-0.0235 ± 0.023,-0.0335 ± 0.0092,0.0175 ± 0.071,0.0025 ± 0.042,-0.0145 ± 0.0078,-0.017 ± 0.017,-0.0965 ± 0.018,-0.083 ± 0.0099,-0.0925 ± 0.03,-0.011 ± 0.024,-0.03 ± 0.0057,-0.007 ± 0.093,-0.011 ± 0.014,-0.037 ± 0.031,0.005 ± 0.065,0.007 ± 0.028,0.0035 ± 0.0064,-0.0205 ± 0.0092,0.005 ± 0.051,-0.0025 ± 0.035
BE3C:EGFR,0.001 ± 0.0057,-0.0005 ± 0.0064,-0.0305 ± 0.026,0.003 ± 0.0014,-0.005 ± 0.0028,0.0025 ± 0.015,-0.02 ± 0.02,-0.0485 ± 0.019,-0.122 ± 0.0092,-0.004 ± 0.0042,-0.0225 ± 0.029,-0.008 ± 0.0099,0.01 ± 0.014,0.0145 ± 0.044,0.0145 ± 0.04,-0.008 ± 0.031,0.0005 ± 0.022,0.006 ± 0.0014,-0.001 ± 0.0042,-0.013 ± 0.0028
4H:VEGFR2,-0.0425 ± 0.032,-0.096 ± 0.0085,-0.0995 ± 0.00071,-0.003 ± 0.021,-0.009 ± 0.014,-0.001 ± 0.024,-0.035 ± 0.065,-0.0105 ± 0.035,-0.0755 ± 0.036,0.008 ± 0.011,0.02 ± 0.017,0.0155 ± 0.03,0.075 ± 0.11,0.084 ± 0.09,0.0375 ± 0.0078,-0.0205 ± 0.037,-0.0125 ± 0.1,-0.257 ± 0.1,0.0045 ± 0.022,0.0245 ± 0.0021
4H:CCL26/Eotaxin-3,-0.0005 ± 0.018,-0.0415 ± 0.032,-0.0675 ± 0.025,0.0005 ± 0.005,-0.004 ± 0.0099,-0.015 ± 0.0071,0.0145 ± 0.005,-0.0035 ± 0.039,0.032 ± 0.048,0.032 ± 0.017,0.0095 ± 0.016,0.0125 ± 0.015,-0.0595 ± 0.019,-0.0575 ± 0.047,-0.0145 ± 0.018,-0.0395 ± 0.033,-0.056 ± 0.0071,-0.0655 ± 0.033,-0.0025 ± 0.0021,0.004 ± 0.021
BF4T:Keratin 8/18,-0.02 ± 0.0042,-0.0185 ± 0.013,0.0135 ± 0.023,0.017 ± 0.028,0.0165 ± 0.015,-0.006 ± 0.037,-0.0125 ± 0.0064,-0.0225 ± 0.011,0.004 ± 0.033,-0.0015 ± 0.015,-0.0055 ± 0.0021,0.005 ± 0.024,-0.0135 ± 0.015,0.0195 ± 0.032,0.0145 ± 0.043,-0.0005 ± 0.013,-0.0105 ± 0.015,0.0135 ± 0.023,0.006 ± 0.016,0.0055 ± 0.0078
BT:sIL-17A,0.151 ± 0.14,-0.065 ± 0.0085,-0.0925 ± 0.3,0.009 ± 0.22,0.038 ± 0.075,-0.086 ± 0.068,0.034 ± 0.12,0.045 ± 0.22,-0.147 ± 0.065,0.0035 ± 0.021,-0.199 ± 0.028,-0.231 ± 0.099,-0.111 ± 0.021,-0.059 ± 0.16,-0.134 ± 0.0028,-0.113 ± 0.014,0.155 ± 0.15,-0.104 ± 0.11,0.06 ± 0.018,0.0085 ± 0.12
LPS:CCL2/MCP-1,-0.0135 ± 0.0035,0.0125 ± 0.0021,0.006 ± 0.021,-0.0035 ± 0.00071,-0.008 ± 0.027,-0.0045 ± 0.018,0.008 ± 0.0085,0.0005 ± 0.0078,-0.042 ± 0.05,0.017 ± 0.011,0.018 ± 0.044,0.0255 ± 0.043,0.013 ± 0.055,0.0055 ± 0.077,0.005 ± 0.071,0.0315 ± 0.032,0.0145 ± 0.0078,0.0155 ± 0.029,0.006 ± 0.021,0.017 ± 0.013
SAg:CXCL9/MIG,-0.006 ± 0.017,-0.0065 ± 0.0021,-0.013 ± 0.011,-0.0005 ± 0.0064,-0.001 ± 0.0085,0.0055 ± 0.005,-0.0095 ± 0.016,-0.0135 ± 0.013,0.01 ± 0.0042,-0.0005 ± 0.015,-0.0105 ± 0.018,0 ± 0.0057,-0.004 ± 0.014,0.001 ± 0.0085,-0.002 ± 0.0028,-0.013,-0.016 ± 0.0028,0.0035 ± 0.018,-0.002 ± 0.0057,0.0095 ± 0.016
3C:SRB,0.0145 ± 0.022,-0.031 ± 0.0028,-0.0675 ± 0.028,-0.0065 ± 0.0078,-0.011 ± 0.0057,-0.001 ± 0.0028,-0.016 ± 0.0071,-0.0055 ± 0.019,-0.149 ± 0.074,-0.002,-0.0085 ± 0.0078,-0.009 ± 0.0085,-0.015 ± 0.0028,-0.0165 ± 0.012,-0.017 ± 0.0085,-0.0125 ± 0.0035,-0.012 ± 0.016,-0.0125 ± 0.028,0.004 ± 0.021,-0.005 ± 0.018
BE3C:CXCL8/IL-8,-0.112 ± 0.0021,-0.118 ± 0.0042,-0.2 ± 0.078,0.0095 ± 0.042,0.0135 ± 0.00071,0.017 ± 0.021,0.0135 ± 0.016,0.0065 ± 0.019,-0.0965 ± 0.0092,0.033 ± 0.042,0.004 ± 0.041,0.0035 ± 0.036,-0.005 ± 0.055,0.0365 ± 0.052,-0.002 ± 0.045,0.01 ± 0.045,-0.0215 ± 0.00071,0.0115 ± 0.00071,0.0125 ± 0.052,0.068 ± 0.024
BE3C:CXCL9/MIG,0.0125 ± 0.016,0.009 ± 0.018,0.021 ± 0.028,0.005 ± 0.0014,0 ± 0.0099,0.001 ± 0.0099,-0.0045 ± 0.011,-0.011 ± 0.017,-0.012 ± 0.0057,-0.003,-0.008 ± 0.0057,0.0005 ± 0.0035,-0.016 ± 0.02,-0.006 ± 0.017,-0.0015 ± 0.015,-0.0045 ± 0.0035,-0.014 ± 0.0099,-0.0125 ± 0.013,0.0055 ± 0.0035,0.0015 ± 0.0021
